Measured values as given in US20110294901A1, “FINELY PULVERIZED PHARMACEUTICAL COMPOSITION” (priority 2009, published 2011).

How the values were obtained:
[1] = Particle size measurement with a particle size distribution measuring device (Microtruck X100); format: physicochemical
Procedure: Preferably, the particles of the drug contained in the composition according to the present invention have a cumulative 50% particle diameter of not more than 1.5 μm and a cumulative 90% particle diameter of not more than 3.0 μm. More preferably, the cumulative 50% particle diameter and the cumulative 90% particle diameter are not more than 1.0 μm and not more than 2.0 μm, respectively. In the present invention, when a cumulative curve is determined by presuming the total volume of a powder population, of which the particle size distribution is analyzed, to be 100%, the particle diameter of a point at which the cumulative curve is 50% and the particle diameter of a point at which the cumulative curve is 90% are “cumulative 50% particle diameter” and “cumulative 90% particle diameter” (μm), respectively.
The diameters of drug particles obtained by the grinding can be measured by a laser diffraction/scattering-type particle size distribution measuring machine. Specifically, for example, Microtruck (tradename) sold by NIKKISO Co., Ltd. is preferred. […]
The cumulative 50% particle diameter of bulk drug particles in the fine granules in Examples 4 and 5 and Comparative Examples 3 to 5 was measured with a particle size distribution measuring device (manufacturer: NIKKISO Co., Ltd., model: Mircotruck X100).

[2] = Dissolution test (1), paddle method, 1% aqueous polysorbate 80; format: physicochemical; details: three hr after the start of the dissolution; 50 mg drug, 100 rpm, 900 mL 1% aqueous polysorbate 80
Procedure: A dissolution test was carried out for the suspension produced in Example 1 (grinding conditions 3) and a liquid obtained by suspending the ground bulk drug obtained in Comparative Example 1 in water.
Each of the suspensions in an amount corresponding to 50 mg of the 22β-methoxyolean-12-ene-3β,24(4β)-diol bulk drug was accurately weighed, and a test was carried out by a dissolution test method, second method (paddle method), specified in Japanese Pharmacopoeia, at a rotation speed of 100 rpm (rotation speed of paddle) using 900 mL of a 1% aqueous polysorbate 80 solution as a test solution. After 15 min, 30 min, 60 min, and 180 min from the start of dissolution, 5 mL of the test solution was collected and was filtered by a membrane filter having a pore diameter of 0.2 μm to give measurement samples. The samples were analyzed by high-performance liquid chromatography (manufacturer: Shimadzu Seisakusho Ltd., model:LC-10ATvp) to determine dissolution rate for each sample.

Row | Structure (SMILES) | cumulative 50% particle diameter ([1]; bulk drug before grinding) | dissolution rate [2] [%] | cumulative 50% particle diameter of the ground bulk drug ([1]; ground with jet mill at 0.54 MPa, dispersed in 0.01% aqueous sodium laurylsulfate solution) [μm]
1 | CO[C@@H]1CC(C)(C)C[C@H]2C3=CC[C@@H]4[C@@]5(C)CC[C@H](O)[C@](C)(CO)[C@@H]5CC[C@@]4(C)[C@]3(C)CC[C@@]12C [22β-methoxyolean-12-ene-3β,24(4β)-diol] | about 50 μm |  | 
2 | CO[C@@H]1CC(C)(C)C[C@H]2C3=CC[C@@H]4[C@@]5(C)CC[C@H](O)[C@](C)(CO)[C@@H]5CC[C@@]4(C)[C@]3(C)CC[C@@]12C [Comparative Example 1, 22β-Methoxyolean-12-ene-3β, 24(4β)-diol] |  | 10 | 2.5
